Patent publication US20050049204A1, “Compounds for the treatment of flaviviridae infections” (priority 2003, published 2005)
Read-outs that look alike come from different tables or passages of the source.

Tests used:
[1] = tested on: HCV replicon RNA in Huh7 cells; test: Reversal studies with natural nucleosides: HCV RNA; assay type: cell-based, hepatitis C virus (HCV); details: for log10 reduction HCV: 100 μM, no nucleoside
Description: (§1) Incubation times differed according to the type of experiment.
(§2) Cells were incubated with the test compound and, simultaneously, the natural ribo- or 2′-deoxy nucleosides (adenosine, guanosine (G), cytidine (C), uridine (U), 2′-deoxycytidine (dC), 2′-deoxyuridine, thymidine, 2′-deoxyguanosine (dG), and 2′-deoxyadenosine) (Table 2).

[2] = tested on: rRNA in HCV-replicon RNA-containing Huh7 cells; test: rRNA levels in HCV replicon cells (cellular toxicity), Q-RT-PCR after 96 h; details: 100 μM
Description: HCV replicon cells were seeded in the presence of test compound at approximately 10^3 cells per well in a 96-well plate and incubated for 96 hours. rRNA and HCV RNA were quantified by Q-RT-PCR. ●: HCV RNA levels; ◯: rRNA levels; ▾: HCV RNA levels after correction (=subtraction of rRNA) for cellular toxicity. […] The plots shown are the mean results of at least three independent experiments. EC90 values as given in Table 1 are read from the HCV curves corrected for cellular toxicity.
HCV-replicon RNA-containing Huh7 cells (Clone A cells; Apath, LLC, St. Louis, Mo.) were kept in exponential growth in DMEM media (high glucose, no pyruvate) containing 10% fetal bovine serum, 1× non-essential amino acids (100 units/ml), penicillin-streptomycin (100 μg/ml), glutamine (0.292 mg/ml), and G418 (1,000 μg/ml). Antiviral assays were performed in the same medium without G418. […] Cells were seeded in a 6-well plate at 10^5 cells per well. Candidate antiviral compounds were tested as described (Stuyver, et al. “A ribonucleoside analogue that blocks the replication of bovine viral diarrhea and hepatitis C viruses in culture” Antimicrob. Agents Chemother., January 2003, 47 (1), 244-254). Incubation times differed according to the type of experiment. At the end of the incubation step, cells were counted using the trypan-blue exclusion method, and total cellular RNA was isolated (Rneasy 96 kit, Qiagen, CA). Replicon RNA and an internal control (TaqMan Ribosomal RNA Control Reagents, Applied Biosystems, CA) were amplified in a single-step, multiplex RT-PCR protocol, as recommended by the manufacturer and as described (Stuyver, et al. “A ribonucleoside analogue that blocks the replication of bovine viral diarrhea and hepatitis C viruses in culture” Antimicrob. Agents Chemother., January 2003, 47 (1), 244-254).
Replicon cells were incubated in the absence or presence of these anti-metabolites for 96 hours, after which intracellular rRNA and HCV RNA levels were quantified (Table 1).

[3] = tested on: rRNA in HCV replicon Huh7 cells; test: Reversal studies with natural nucleosides: rRNA; assay type: cell-based; details: for log10 reduction rRNA: 100 μM, no nucleoside
Description: as §1, §2

[4] = tested on: HCV replicon-containing Huh7 cell line; test: Dynamics of replicon cell growth (cell count) over a 7-day period
[5] = tested on: HCV replicon RNA in Huh7 cells; test: HCV RNA levels in replicon cells over a 7-day period; assay type: cell-based, hepatitis C virus (HCV)
[6] = tested on: HCV-replicon RNA-containing Huh7 cells (HCV RNA); test: HCV replicon assay: HCV RNA quantified by Q-RT-PCR after 96 h of compound exposure; assay type: cell-based, hepatitis C virus (HCV); details: for EC90: read-out: Corrected HCV RNA EC90
Description: as §1

[7] = seven-day assay, tested at approximately EC90 value

Structure (SMILES) | log10 reduction HCV [1] [log10] | Log10 RNA reduction (100 μM) rRNA [2] [log10] | log10 reduction rRNA [3] [log10] | effect on cell proliferation ([4]; 20 μM, 7-day period) | reducing the HCV RNA levels ([5]; 20 μM, 7-day period) | log reduction at 10 µM ([6]; Hepatitis C virus, Huh-7, 10 μM, 96 h, corrected by subtraction of rRNA, read-out: Corrected HCV RNA log10 reduction at 10 μM) | log reduction at 100 µM ([6]; Hepatitis C virus, Huh-7, 100 μM, 96 h, corrected by subtraction of rRNA, read-out: Corrected HCV RNA log10 reduction at 100 μM) | log reduction at 100 µM ([6]; Hepatitis C virus, Huh-7, 100 μM, 96 h, read-out: Log10 RNA reduction (100 μM) HCV) | EC90 ([6]; Hepatitis C virus, Huh-7, 96 h, read from HCV curves corrected for rRNA reduction) [µM] | log10 reduction HCV including natural nucleoside ([1]; 100 μM + U at 50 μM) [log10] | log10 reduction rRNA including natural nucleoside ([3]; 100 μM + U at 50 μM) [log10] | effect on cell growth [4, 7] | inhibition of the HCV RNA replication [5, 7] | Corrected HCV RNA log10 reduction at 10 μM ([6]; 10 μM, 96 h, corrected by subtraction of rRNA) [log10] | Corrected HCV RNA log10 reduction at 100 μM ([6]; 100 μM, 96 h, corrected by subtraction of rRNA) [log10] | EC90 ([6]; Hepatitis C virus, Huh-7, 96 h) [µM]
C[C@@]1(O)[C@H](O)[C@@H](CO)O[C@H]1n1cnc2c(N)ncnc21 [2′C—CH3-A, 2′-C-methyl-adenosine] | 2.32 ± 0.11 | 2.96 ± 0.08 | 2.96 ± 0.08 | minimal | very potent | 2.05 | -0.64 ± 0.18 | 2.32 ± 0.11 | < 1 |  |  |  |  |  |  | 
NC(=O)c1[nH]nc([C@@H]2O[C@H](CO)[C@@H](O)[C@H]2O)c1O [pyrazofurin] | 1.88 ± 0.05 | 0.42 ± 0.03 | 0.42 ± 0.03 |  |  |  |  |  |  | 0.35 ± 0.03 | −0.01 ± 0.04 | minimal effect | very potent inhibition | 1.16 ± 0.21 | 1.46 ± 0.08 | 3.8
